The values below come from patent US5571816A, “Pyrimidines” (Hoechst Aktiengesellschaft, priority 1992, dated 1996).

Counter-ions that a name gives are not always drawn. Like-named read-outs stand apart in the source and are kept apart here.

Series [1] in a line: Solubility in water of salts (and free bases). In kind it is physicochemical. As to conditions: Table 2, salts of compounds I, temp. by No. [°C]: 1 25.5, 2 23.0, 3 22.4, 4 22.4, 5 22.0, 6 25.0, 7 25.5, 8 25.5, 9 25.5, 10 23.5, 11 23.5, 12 25.0, 13 24.0, 14 23.0, 15 22.0, 16 24.5, 17 22.5, 18 22.0; for solubility: water, read-out: Solubility in water, Concentration in % by wt.
The test system of another series is serum lipoproteins. Kind of series: Effect on serum lipoproteins of normolipemic male rats in a subchronic experiment. It is filed as in vivo. The following applies: Rattus norvegicus, po, by stomach tube, 7 administrations; for change in vivo at 3 mg/kg: 3 mg/kg/day; for change in vivo at 10 mg/kg: 10 mg/kg/day; for change in vivo at 30 mg/kg: 30 mg/kg/day. On the procedure:
3. In vivo, the increased LDL receptor activity in experimental animals is reflected by reduction in the lipoprotein fractions which can be metabolized by the LDL receptor (apoB/E receptor), i.e. a reduction in the LDL and VLDL levels is observed. The following test was carried out:
Effect on serum lipoproteins of normolipemic male rats in a subchronic experiment
Groups of in each case 10 male rats of the HOE: WISKf (SPF 71) strain with an initial weight above 180 g received once a day (in the morning) the test product or the comparison product in 1% aqueous ®Tylose MH 300 solution by stomach tube (0.5 ml/100 g of body weight); the control group in each case received only the vehicle. The last (7th) administration took place 24 hours before removal of blood and sacrifice. There was free access to food and water during the test. The food was withdrawn 24 hours before the removal of blood.
The serum from all 10 rats in a group was pooled for the analysis of the serum lipoproteins. The serum lipoproteins were separated with a preparative ultracentrifuge (KONTRON TGA 65, Rotor BECKMAN 50.4 Ti).
The following conditions specified by Koga, S., Horwitz, D. L., and Scanu, A. M., Journal of Lipid Research 10, 577 (1969) and Havel, R. J., Eder, H. A., and Bragdon, H. H., J. Clin. Invest. 34, 1345 (1955) were used to separate VLDL and LDL: 1. VLDL: Density<1.006, 40,000 rpm for 16 hours 2. LDL: Density 1.006-1.04, 40,000 rmp for 16 hours
Test kits from BOEHRINGER/Mannheim were used for the enzymatic determination of cholesterol and triglycerides in the separated lipoprotein fractions (cf. Siedel, J., Schlumberger, H., Klose, S., Ziegenhorn, J. and Wahlefeld, A. W., J. Clin. Chem. Clin. Biochem. 19, 838 (1981) and Wahlefeld, A. W., in: H. O. Bergmeier: Methoden der enzymatischen Analyse (Methods of Enzymatic Analysis), 2nd edition, Volume II, Verlag Chemie 1974, page 1878). The proteins were determined by the method of Lowry (Lowry, O. H., Roseborough, N. H., Farr, A. L. and Randell, R. J., J. Biol. Chem. 193, 265 (1951)).
Clofibrate was used as comparison product.

In another series the test system is LDL receptor mRNA. The experiment in a line: Stimulation of LDL receptor mRNA expression in HepG2 cells (Northern blot). It is filed as cell-based. The following applies: Homo sapiens; HepG2, 2 × 10^-6 M, 16 h; control = 100%; ratio to β-actin mRNA. On the procedure: 1a. In the human hepatocytoma cell line HepG2, which is recognized everywhere as model, the LDL receptor mRNA levels are increased by the compounds of the formula I (Table I).
The mRNA was prepared by the method described by Chomczynski, P. and Sacchi, N., in Anal. Biochem. 162, 156-159 (1987). In the case of organs (such as, for example, liver), the deep-frozen tissue was previously homogenized on dry ice in a mortar, and the mRNA was further concentrated by means of oligo dT by standard methods (cf. Sambrook, J., Fritsch, E. F. and Maniatis, T., Molecular Cloning, second edition, Cold Spring Harbor (1989); this collection of methods also includes descriptions of all the other relevant standard processes of molecular biology used here). 5 to […] of the dissolved mRNA obtained in this way were denatured by standard processes and fractionated on 1% horizontal agarose gels. The mRNA was transferred by capillary blotting to Hybond N membranes (Amersham). Used as specific hybridization probe was a partial LDL receptor cDNA clone and as internal standard was a plasmid which contained a β-actin gene. Both plasmids were labeled using a random primer kit from Amersham to a specific activity of 5×10^9 cpm/μg. Prehybridization, hybridization and washing of the filters took place by standard processes. The filters were subsequently exposed on Cronex 4 films (Dupont) in the presence of an intensifying screen at -70° C. overnight or for up to 14 days, and the hybridization signals were quantified from the intensity of blackening of the film using a commercially available laser densitometer. Subsequently, the quotient of the intensity of the LDL receptor band and of the actin band was determined as internal standard to correct for variations in yield.
The HepG2 cells were incubated in RPMI 1640 standard medium with fetal calf serum (final concentration 10%). Serum-free RPMI medium was used as induction control. Subsequently, the complete mRNA was prepared and, by means of the Northern blot technique, the relevant LDL receptor mRNA and β-actin mRNA levels were determined. The quotient of the LDL receptor mRNA signal and of the β-actin mRNA signal of the control (without added substance) was set equal to 100%, and the stimulation above this of the LDL receptor mRNA levels achieved under the influence of the compounds was expressed as percentage of the control.

Setting [2] is: read-out: Serum LDL cholesterol, % change from control at end of treatment.
The mark [3] stands for this setting: read-out: Serum LDL protein, % change from control at end of treatment.
Where [4] appears, read: read-out: Serum VLDL cholesterol, % change from control at end of treatment.
[5] abbreviates: read-out: Serum VLDL protein, % change from control at end of treatment.
[6] abbreviates: read-out: Serum VLDL triglycerides, % change from control at end of treatment.

Take `CN(C(=O)c1cnc(N2CC(C)(C)NC2=O)nc1N)c1cc(C(F)(F)F)ccc1F` [Example 28]: in series [1], the “1 part by mass dissolves in ... parts by H2O” value (shortened to “1 part by mass dissolves”) is listed as 72.7 parts by H2 O. The solubility in series [1] worked out at 13.6 mg/mL. In addition, the change in vivo at 3 mg/kg in the series with serum lipoproteins (setting [2]) is 1%; in the series on serum lipoproteins (setting [3]), -26%; with serum lipoproteins (setting [4]), -2%; in the series with serum lipoproteins (setting [5]), -29%. Moreover, the change in vivo at 10 mg/kg in the series on serum lipoproteins (setting [2]) is -33%; with serum lipoproteins (setting [3]), -68%; with serum lipoproteins (setting [4]), -74%; in the series on serum lipoproteins (setting [5]), 41%; with serum lipoproteins (setting [6]), 46%. In addition, the change in vivo at 30 mg/kg was -75% in the series on serum lipoproteins (setting [2]); -62% in the series with serum lipoproteins (setting [3]); -79% with serum lipoproteins (setting [4]); -49% with serum lipoproteins (setting [5]); -56% in the series with serum lipoproteins (setting [6]).

Consider `CCN(C(=O)c1cnc(N2CC(C)NC2=O)nc1N)c1cccc(C(F)(F)F)c1` (stereo not drawn) [Example 58, 4-amino-2-(4-methyl-2-oxo-1-imidazolidinyl)pyrimidine-5-carboxylic acid N-ethyl-N-(3-trifluoromethylphenyl)amide hydrochloride], for which the “1 part by mass dissolves” value in series [1] turned out to be 6.8 parts by H2 O. Also, in series [1], the solubility is 128 mg/mL. Moreover, the change in vivo at 30 mg/kg in the series with serum lipoproteins (setting [2]) is 46%; in the series on serum lipoproteins (setting [3]) it was -25%; with serum lipoproteins (setting [4]), -59%; in the series with serum lipoproteins (setting [5]), -22%; in the series with serum lipoproteins (setting [6]) it was -40%.

As to `CC(C)(C)CN(C(=O)c1cnc(N2CC(C)(C)NC2=O)nc1N)c1cccc(C(F)(F)F)c1` [Example 37], in series [1], the “1 part by mass dissolves” value was determined as 53.3 parts by H2 O. For the same compound, the solubility in series [1] turned out to be 19.1 mg/mL. In addition, the change in vivo at 10 mg/kg is -39% with serum lipoproteins (setting [2]); -21% in the series with serum lipoproteins (setting [3]); -56% with serum lipoproteins (setting [4]); -30% in the series with serum lipoproteins (setting [5]); -40% in the series with serum lipoproteins (setting [6]). The change in vivo at 30 mg/kg in the series on serum lipoproteins (setting [2]) was -76%; with serum lipoproteins (setting [3]) it was -49%; with serum lipoproteins (setting [4]) it was -85%; in the series on serum lipoproteins (setting [5]), -48%; with serum lipoproteins (setting [6]) it was -75%.

Turning to `CCN(C(=O)c1cnc(N2CC(C)(C)NC2=O)nc1N)c1cc(C(F)(F)F)ccc1F` [Example 32], the solubility in series [1] is 10.1 mg/mL. For the same compound, the change in vivo at 10 mg/kg in the series on serum lipoproteins (setting [2]) is -54%; in the series with serum lipoproteins (setting [3]), -36%; with serum lipoproteins (setting [4]), -85%; in the series on serum lipoproteins (setting [5]) it was -73%; in the series on serum lipoproteins (setting [6]), -68%. For the same compound, the change in vivo at 30 mg/kg with serum lipoproteins (setting [2]) was -76%; in the series on serum lipoproteins (setting [3]), -49%; in the series on serum lipoproteins (setting [4]) it was -100%; in the series with serum lipoproteins (setting [5]) it was -39%; with serum lipoproteins (setting [6]), -80%.

Regarding `CC1(C)CN(c2ncc(C(=O)N(CC3CC3)c3cccc(C(F)(F)F)c3)c(N)n2)C(=O)N1` [Example 12, 4-amino-2-(4,4-dimethyl-2-oxo-1-imidazolidinyl)pyrimidine-5-carboxylic acid N-cyclopropylmethyl-N-(3-trifluoromethylphenyl)amide hydrochloride], the activity at 2 µM with LDL receptor mRNA turned out to be 170%. Besides, the change in vivo at 3 mg/kg in the series with serum lipoproteins (setting [2]) was -26%; with serum lipoproteins (setting [3]), -5%; with serum lipoproteins (setting [4]) it was -6%; in the series on serum lipoproteins (setting [5]) it was -8%; in the series with serum lipoproteins (setting [6]), -4%. Further, the change in vivo at 10 mg/kg in the series with serum lipoproteins (setting [2]) is 46%; in the series on serum lipoproteins (setting [3]), -18%; in the series on serum lipoproteins (setting [4]) it was -63%; in the series with serum lipoproteins (setting [5]) it was -34%; in the series on serum lipoproteins (setting [6]), -51%. Moreover, the change in vivo at 30 mg/kg in the series on serum lipoproteins (setting [2]) is -66%; with serum lipoproteins (setting [3]), -30%; in the series on serum lipoproteins (setting [4]), -80%; in the series on serum lipoproteins (setting [5]) it was -51%; in the series with serum lipoproteins (setting [6]), -29%.

`CN(C(=O)c1cnc(N2CCNC2=O)nc1N)c1cccc(C(F)(F)F)c1` [Example 64, 4-amino-2-(2-oxo-1-imidazolidinyl)pyrimidine-5-carboxylic acid N-methyl-N-(3-trifluoromethylphenyl)amide hydrochloride]: in series [1], the “1 part by mass dissolves” value is 19.8 parts by H2 O. The solubility in series [1] is 48.1 mg/mL. The change in vivo at 30 mg/kg was -20% in the series with serum lipoproteins (setting [2]), -10% with serum lipoproteins (setting [3]), -18% with serum lipoproteins (setting [4]) and -28% with serum lipoproteins (setting [5]).

`CC(C)N(C(=O)c1cnc(N2CC(C)(C)NC2=O)nc1N)c1ccc(F)c(C(F)(F)F)c1` [Example 35]: the “1 part by mass dissolves” value in series [1] amounted to 28.6 parts by H2 O. Further, the solubility in series [1] was 33.8 mg/mL. Moreover, the change in vivo at 30 mg/kg with serum lipoproteins (setting [2]) was 46%; in the series with serum lipoproteins (setting [3]), -35%; in the series on serum lipoproteins (setting [4]), -79%; in the series with serum lipoproteins (setting [5]), -69%; in the series on serum lipoproteins (setting [6]) it was -55%.
